Source: PMC5831858, “Pharmacological characterisation of CR6086, a potent prostaglandin E2 receptor 4 antagonist, as a new potential disease-modifying anti-rheumatic drug” (Arthritis Research & Therapy, 2018)
Like-named read-outs stand apart in the source and are kept apart here. Marks after values point to notes of the source that are not given here.

How the values were obtained:
[1] = CR6086 pharmacokinetics in rats; type: in vivo, rat; details: for Cmax / AUC / Tmax: rat, plasma, oral; for AUC: read-out: AUC24; for Tmax: median
Procedure: (§1) CR6086 concentrations in rat plasma were determined by high-performance liquid chromatography (Agilent 1200 series; Agilent Technologies, Santa Clara, CA, USA) coupled with a triple-quadrupole mass spectrometer (API 4000 QTRAP; SCIEX, Concord, ON, Canada). A ZORBAX SB-C18 2.0 × 50-mm, 3.5-μm column (Agilent Technologies) in isocratic conditions was used with mobile phase 0.1% formic acid in water/acetonitrile (68:32 vol/vol). The method was linear within the dynamic range 1.0–10,000 ng/ml (lower to upper limit of quantification). CR6086 plasma protein binding was determined in the 0.2–200 μM concentration range using [^14C]CR6086 and equilibrium dialysis. EP4 receptor occupancy (RO) was calculated on the basis of CR6086 concentrations according to the following formula: RO%=Cave/Cave+Ki×100,
The pharmacokinetics of CR6086 were investigated in the animal species used as rheumatoid arthritis models, employing the same administration route and dose range. […] Therefore, for ethical reasons, all pharmacokinetic experiments were conducted in naive animals.

GAL1 = GAL1 (Homo sapiens, UniProt P47211); assay: Galanin receptor GAL1 binding; details: [^125I]galanin, Human recombinant HEK-293 cells, read-out: CR6086 Activity at 10µM
Sequence of GAL1 (P47211 whole entry): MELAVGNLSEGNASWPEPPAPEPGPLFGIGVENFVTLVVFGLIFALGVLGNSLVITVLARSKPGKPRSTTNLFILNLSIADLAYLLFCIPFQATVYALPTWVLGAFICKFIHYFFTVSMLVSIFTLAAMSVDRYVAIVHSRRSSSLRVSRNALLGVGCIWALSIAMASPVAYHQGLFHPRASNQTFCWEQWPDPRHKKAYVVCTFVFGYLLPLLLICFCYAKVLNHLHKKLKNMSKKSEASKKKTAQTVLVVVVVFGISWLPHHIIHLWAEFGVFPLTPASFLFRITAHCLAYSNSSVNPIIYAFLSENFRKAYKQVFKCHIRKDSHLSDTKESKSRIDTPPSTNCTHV

[2] = tested on: arthritic rats (collagen-induced arthritis model); assay: Mechanical hyperalgesia (PAM) in CIA rats; type: in vivo, rat; details: 15 mg/kg, mean ± SEM
Procedure: Male Lewis rats were immunised by intradermal injection at the base of the tail with an emulsion containing 150 μg of bovine collagen type II (bCII) in complete Freund’s adjuvant (CFA) or received an injection with incomplete Freund’s adjuvant (sham group). Three weeks after the first immunisation, animals were boosted with the same procedure. Three days after booster injection, arthritis had developed in all animals but the sham group. Oedema was assessed via plethysmometer (Ugo Basile, Varese, Italy), and the animals were then randomised to treatment groups. Oedema measurement was performed again after 7 and 14 days of treatment. Animals were blindly scored by two different investigators for clinical signs of arthritis (redness, swelling, pain of hind limb joints) as follows: 0 = normal; 1 = mild but definite redness and swelling of the ankle or wrist or individual digits, regardless of the number of affected digits; 2 = moderate redness and swelling of ankle or wrist; 3 = severe redness and swelling of the entire paw including digits; and 4 = maximally inflamed limb with involvement of multiple joints. The mean of the scores assigned by the investigators was calculated.
In the comparative experiment vs rofecoxib, mechanical hyperalgesia was assessed at the end of treatment by using a digital pressure application measurement (PAM) device (Ugo Basile). Increasing pressure was applied to the lateral side of the knee until the animal attempted to escape or vocalised. The force required to elicit this response was measured in grams (gram-force). An optimal stimulus increase rate of 100 g/second was used, and mechanical thresholds were reached after approximately 10 seconds. This increase was visualised with a rate meter on the built-in display, so the pressure applied was visually controlled. At the end of the experiment, animals were killed, and their hind paws were explanted and processed for histology.

[3] = Plasma protein binding (equilibrium dialysis, [^14C]CR6086); type: in vitro ADME; details: rat, 0.2–200 μM, read-out: unbound fraction (fu)
Procedure: as §1

human EP4 receptor = biological target: T1, human EP4 receptor (Homo sapiens, UniProt P35408); assay: AlphaScreen cAMP functional assay, PGE2-stimulated HEK293 membranes; type: biochemical
T1 construct: expressed in transfected cells
T1 sequence (P35408 whole entry): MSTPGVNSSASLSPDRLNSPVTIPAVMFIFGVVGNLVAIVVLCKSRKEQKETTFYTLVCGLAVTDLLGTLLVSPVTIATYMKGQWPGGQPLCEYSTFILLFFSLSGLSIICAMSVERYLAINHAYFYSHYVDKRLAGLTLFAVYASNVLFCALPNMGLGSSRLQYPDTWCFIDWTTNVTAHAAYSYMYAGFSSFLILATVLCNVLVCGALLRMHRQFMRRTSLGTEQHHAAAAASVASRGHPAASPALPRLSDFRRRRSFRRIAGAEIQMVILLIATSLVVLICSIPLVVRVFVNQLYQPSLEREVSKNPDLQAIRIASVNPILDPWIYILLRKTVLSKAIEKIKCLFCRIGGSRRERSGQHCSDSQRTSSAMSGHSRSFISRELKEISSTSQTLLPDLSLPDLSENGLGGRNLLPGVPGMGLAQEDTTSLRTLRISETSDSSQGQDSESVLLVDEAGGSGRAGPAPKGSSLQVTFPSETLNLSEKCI
Procedure: In studies of CR6086 as a functional receptor antagonist, we took advantage of the evidence that activated EP4 receptors couple with Gs proteins to stimulate adenylyl cyclase and increase cyclic adenosine monophosphate (cAMP) cellular levels. Cell membranes prepared from the HEK293 cell line were suspended in 1 ml of stimulation buffer (Hanks’ balanced salt solution 1× + BSA 0.1% + 3-isobutyl-1-methylxanthine 0.5 mM + HEPES 5 mM + MgCl2 10 mM + guanosine triphosphate 1 nM + guanosine diphosphate 10 μM + adenosine triphosphate 100 μM, pH 7.4). The AlphaScreen cAMP functional assay (PerkinElmer) was used according to the manufacturer’s instructions. Because AlphaScreen beads are light-sensitive, the cAMP assay was performed under subdued laboratory lighting, and any incubation involving the beads was carried out in the dark. The assay is based on the competition between endogenous cAMP and exogenously added biotinylated cAMP. The capture of cAMP is achieved by using a specific antibody conjugated to […]. Cell membranes were dispensed into white 384-well microplates at a final concentration of 1 μg per well. […] After 1 h of incubation, the plate was read using the EnVision platform (PerkinElmer) to determine the cAMP level (excitation 680 nm, emission 520 or 620 nm). […]

ETB = ETB (Homo sapiens, UniProt P24530); assay: Endothelin receptor ETB binding; details: [^125I]endothelin-1, Human recombinant CHO cells, read-out: CR6086 Activity at 10µM
Sequence of ETB (P24530 27-442): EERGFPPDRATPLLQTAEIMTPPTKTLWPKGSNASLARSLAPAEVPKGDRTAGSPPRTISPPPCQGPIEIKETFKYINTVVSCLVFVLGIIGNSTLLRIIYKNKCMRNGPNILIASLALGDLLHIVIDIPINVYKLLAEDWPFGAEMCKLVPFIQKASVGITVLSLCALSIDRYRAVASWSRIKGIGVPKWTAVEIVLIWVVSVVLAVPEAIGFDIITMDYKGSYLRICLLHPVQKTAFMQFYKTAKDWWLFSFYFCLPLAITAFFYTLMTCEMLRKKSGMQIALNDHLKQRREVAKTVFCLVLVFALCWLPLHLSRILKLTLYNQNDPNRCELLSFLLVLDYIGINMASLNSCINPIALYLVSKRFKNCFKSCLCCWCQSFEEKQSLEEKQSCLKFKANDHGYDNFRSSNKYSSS

P2X = assay: Purinergic receptor P2X binding; details: [^3H]α,β-MeATP, Rat urinary bladder
5-HT1B = 5-HT1B (Rattus norvegicus, UniProt P28564); assay: Serotonin receptor 5-HT1B binding; details: [^125I]CYP (+30µM isoproterenol), Rat cerebral cortex, read-out: CR6086 Activity at 10µM
Sequence of 5-HT1B (P28564 whole entry): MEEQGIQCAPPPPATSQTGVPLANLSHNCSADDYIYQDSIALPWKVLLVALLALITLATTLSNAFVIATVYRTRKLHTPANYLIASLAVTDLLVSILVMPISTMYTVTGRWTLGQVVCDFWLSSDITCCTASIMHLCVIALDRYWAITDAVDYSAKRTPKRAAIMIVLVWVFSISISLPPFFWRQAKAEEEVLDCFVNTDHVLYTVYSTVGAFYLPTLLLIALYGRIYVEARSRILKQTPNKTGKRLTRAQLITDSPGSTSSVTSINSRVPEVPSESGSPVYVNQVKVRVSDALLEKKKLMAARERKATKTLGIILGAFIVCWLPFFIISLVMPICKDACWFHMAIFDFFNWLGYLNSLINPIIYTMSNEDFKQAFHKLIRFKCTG

O=C([O-])c1ccc(C2(NC(=O)[C@H]3CC4(CCN3Cc3ccc(C(F)(F)F)cc3)CC4)CC2)cc1.[Na+] [CR6086, Sodium (R)-4-(1-(6-(4-(trifluoromethyl)benzyl)-6-azaspiro[2.5]octane-5-carboxamido)cyclopropyl)benzoate]
unbound Cave ([1]; 3 mg/kg, 24-h dosing interval, single dose): 0.0276 µg/mL
unbound Cave adjusted for the accumulation ratio ([1]; 3 mg/kg, repeated doses): 0.0328 µg/mL
dose linearity of pharmacokinetics ([1]; 1–30 mg/kg oral): linear pharmacokinetics
oral absorption ([1]; 1–30 mg/kg oral): rapidly and completely absorbed
accumulation ratio after repeated doses ([1]; male rats): 1.19
Cmax ([1]; 1 mg/kg): 1.25 ± 0.067 µg/mL
AUC ([1]; 1 mg/kg, AUC4 for the dose of 1 mg/kg): 2.17 ± 0.338 µg·h/mL
Tmax ([1]; 1 mg/kg): 15 min
Cmax ([1]; 3 mg/kg): 3.23 ± 0.173 µg/mL
Tmax ([1]; 3 mg/kg): 15 min
AUC ([1]; 3 mg/kg): 13.7 ± 3.99 µg·h/mL
Cmax ([1]; 10 mg/kg): 14.5 ± 3.4 µg/mL
Tmax ([1]; 10 mg/kg): 30 min
AUC ([1]; 10 mg/kg): 58 ± 6.73 µg·h/mL
Cmax ([1]; 15 mg/kg): 11.9 ± 2.04 µg/mL
Tmax ([1]; 15 mg/kg): 30 min
AUC ([1]; 15 mg/kg): 61.6 ± 10.6 µg·h/mL
Cmax ([1]; 30 mg/kg): 34.5 ± 6.4 µg/mL
Tmax ([1]; 30 mg/kg): 60 min
AUC ([1]; 30 mg/kg): 206 ± 46 µg·h/mL
inhibition at 10 µM (GAL1): < 20%
Mechanical hyperalgesia, Day 0 ([2]; Day 0): 850.45 ± 59.57^a gram-force
Mechanical hyperalgesia, Day 7 ([2]; Day 7): 846.33 ± 43.60^b,c gram-force
Mechanical hyperalgesia, Day 14 ([2]; Day 14): 1023.09 ± 53.97^d gram-force
fraction unbound [3]: 0.0484
IC50 (human EP4 receptor; 3 nM PGE2, HEK293 membranes, read-out: IC50 on PGE2-stimulated cAMP production): 0.022 µM
functional behaviour (human EP4 receptor; cAMP functional assays): pure EP4 antagonist
inhibition at 10 µM (ETB): < 20%
CR6086 Activity at 10µM (P2X): IN (IN = < 20% displacement or inhibition (all tables))
inhibition at 10 µM (5-HT1B): < 20%
